These are literature values, as cited in patent EP2055233B1 (priority 2003, dated 2004).

The conditions of data set [1]: in vivo, iv.

Regarding `CC(C)c1cccc(C(C)C)c1O` [propofol, 2,6-diisopropylphenol], the “dose recovered in urine as hydroxylated and conjugated metabolites” value is given as 88%. Further, the plasma concentration in data set [1] is 1 to 10 µg/mL.
